Among the data in ChEMBL document CHEMBL1136256, “alpha1-Adrenoceptor antagonists. 5. Pyridazinone-arylpiperazines. Probing the influence on affinity and selectivity of both ortho-alkoxy groups at the arylpiperazine moiety and cyclic substituents at the pyridazinone nucleus” (Bioorg Med Chem Lett, 2003) are Ki and Selectivity ratio values, retold here.

Holding throughout (format): tissue-based
For test [1], the target named is T1, 5-hydroxytryptamine receptor 1A (Rattus norvegicus, UniProt P19327).
T1 sequence (P19327 whole entry): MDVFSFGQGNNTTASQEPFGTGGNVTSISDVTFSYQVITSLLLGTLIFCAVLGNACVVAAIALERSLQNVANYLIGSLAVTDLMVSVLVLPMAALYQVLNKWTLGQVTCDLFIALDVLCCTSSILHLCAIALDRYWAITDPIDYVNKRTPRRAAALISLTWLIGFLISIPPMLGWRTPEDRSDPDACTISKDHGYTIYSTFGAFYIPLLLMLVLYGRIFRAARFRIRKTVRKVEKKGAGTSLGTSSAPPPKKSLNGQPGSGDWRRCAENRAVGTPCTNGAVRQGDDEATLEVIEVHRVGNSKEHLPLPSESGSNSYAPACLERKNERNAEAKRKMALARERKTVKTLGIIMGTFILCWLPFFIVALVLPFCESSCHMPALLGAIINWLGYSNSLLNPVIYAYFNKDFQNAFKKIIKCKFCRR
Put plainly: Binding affinity towards 5-hydroxytryptamine 1A receptor in rat cerebral cortex using [3H]-8-OH-DPAT.

Test [2] has as its target Adrenergic receptor alpha-2 (Rattus norvegicus) (UniProt P22086+P19328+P22909). The test is described as follows: Selectivity ratio of Alpha-2 adrenergic receptor by Alpha-1 adrenergic receptor in rat cerebral cortex.
In test [3] the target is T2, Adrenergic receptor alpha-2 (Rattus norvegicus, UniProt P22086+P19328+P22909).
T2 sequence (P22086 whole entry): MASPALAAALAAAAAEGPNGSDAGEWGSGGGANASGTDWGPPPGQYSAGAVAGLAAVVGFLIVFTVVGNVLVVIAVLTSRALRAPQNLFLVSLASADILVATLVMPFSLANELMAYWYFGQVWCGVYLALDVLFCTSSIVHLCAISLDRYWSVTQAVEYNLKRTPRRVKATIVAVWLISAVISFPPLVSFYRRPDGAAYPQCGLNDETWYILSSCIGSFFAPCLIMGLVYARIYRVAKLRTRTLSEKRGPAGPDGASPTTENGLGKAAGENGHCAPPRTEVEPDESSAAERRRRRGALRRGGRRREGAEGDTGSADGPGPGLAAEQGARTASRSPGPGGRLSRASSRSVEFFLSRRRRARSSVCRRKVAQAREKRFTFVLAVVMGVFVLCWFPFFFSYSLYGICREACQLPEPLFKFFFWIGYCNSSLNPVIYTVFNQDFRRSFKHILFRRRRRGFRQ
T2 sequence (P19328 whole entry): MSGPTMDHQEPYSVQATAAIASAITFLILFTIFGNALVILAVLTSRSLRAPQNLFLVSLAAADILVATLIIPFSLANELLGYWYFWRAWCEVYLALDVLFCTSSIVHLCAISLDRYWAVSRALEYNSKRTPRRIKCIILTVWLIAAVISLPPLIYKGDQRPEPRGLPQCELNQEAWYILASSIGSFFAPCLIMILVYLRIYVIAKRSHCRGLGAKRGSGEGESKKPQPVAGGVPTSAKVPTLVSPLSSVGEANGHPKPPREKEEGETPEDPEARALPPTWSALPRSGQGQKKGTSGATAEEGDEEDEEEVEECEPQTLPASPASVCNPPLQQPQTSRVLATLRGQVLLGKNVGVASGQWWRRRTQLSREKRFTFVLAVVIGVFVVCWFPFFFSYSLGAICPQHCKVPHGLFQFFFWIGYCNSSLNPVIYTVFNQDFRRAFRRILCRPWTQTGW
T2 sequence (P22909 whole entry): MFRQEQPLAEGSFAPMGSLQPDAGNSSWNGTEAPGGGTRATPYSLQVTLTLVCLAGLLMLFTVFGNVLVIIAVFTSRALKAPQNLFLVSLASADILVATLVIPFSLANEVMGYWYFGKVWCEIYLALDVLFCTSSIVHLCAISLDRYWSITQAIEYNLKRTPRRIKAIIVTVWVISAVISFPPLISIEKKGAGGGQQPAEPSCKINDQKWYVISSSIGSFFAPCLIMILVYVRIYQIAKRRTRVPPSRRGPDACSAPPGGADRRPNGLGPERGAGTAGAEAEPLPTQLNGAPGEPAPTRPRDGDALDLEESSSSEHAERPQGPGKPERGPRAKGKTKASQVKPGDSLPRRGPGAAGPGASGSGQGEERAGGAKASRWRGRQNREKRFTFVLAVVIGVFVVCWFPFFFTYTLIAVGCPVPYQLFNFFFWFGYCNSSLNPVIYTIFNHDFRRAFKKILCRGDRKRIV
The test is described as follows: Binding affinity towards Alpha-2 adrenergic receptor in rat cerebral cortex using [3H]rauwolscine.

Test [4] deals with T3, Adrenergic receptor alpha-1 (Rattus norvegicus, UniProt P15823+P23944+P43140).
T3 sequence (P15823 whole entry): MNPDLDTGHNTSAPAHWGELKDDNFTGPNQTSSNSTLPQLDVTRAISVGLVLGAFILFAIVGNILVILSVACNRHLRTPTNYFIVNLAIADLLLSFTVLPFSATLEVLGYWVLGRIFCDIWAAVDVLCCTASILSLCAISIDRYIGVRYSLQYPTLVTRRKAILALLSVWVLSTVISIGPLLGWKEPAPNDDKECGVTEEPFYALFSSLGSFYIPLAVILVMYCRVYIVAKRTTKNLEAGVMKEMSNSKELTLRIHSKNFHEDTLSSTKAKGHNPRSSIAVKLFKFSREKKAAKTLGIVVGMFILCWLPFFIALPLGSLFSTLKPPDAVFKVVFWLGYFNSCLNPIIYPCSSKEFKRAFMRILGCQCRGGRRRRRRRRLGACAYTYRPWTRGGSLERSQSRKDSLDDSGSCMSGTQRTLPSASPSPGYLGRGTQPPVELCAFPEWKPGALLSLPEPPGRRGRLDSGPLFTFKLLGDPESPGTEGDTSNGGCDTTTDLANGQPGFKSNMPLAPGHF
T3 sequence (P23944 whole entry): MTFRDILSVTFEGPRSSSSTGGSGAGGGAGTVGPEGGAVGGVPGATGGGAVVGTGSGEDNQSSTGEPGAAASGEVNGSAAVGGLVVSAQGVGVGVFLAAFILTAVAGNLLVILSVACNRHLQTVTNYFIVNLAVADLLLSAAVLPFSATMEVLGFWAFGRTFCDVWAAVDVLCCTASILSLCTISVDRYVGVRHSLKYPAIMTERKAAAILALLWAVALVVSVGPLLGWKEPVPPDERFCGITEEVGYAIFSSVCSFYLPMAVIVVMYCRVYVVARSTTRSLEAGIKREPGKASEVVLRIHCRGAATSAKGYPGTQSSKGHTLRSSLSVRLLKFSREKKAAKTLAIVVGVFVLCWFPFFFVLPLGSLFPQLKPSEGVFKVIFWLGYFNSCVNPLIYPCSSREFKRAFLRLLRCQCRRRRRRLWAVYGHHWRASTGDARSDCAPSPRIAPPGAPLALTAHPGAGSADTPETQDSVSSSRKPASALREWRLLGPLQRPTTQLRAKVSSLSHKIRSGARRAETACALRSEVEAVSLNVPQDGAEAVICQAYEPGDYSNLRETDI
T3 sequence (P43140 whole entry): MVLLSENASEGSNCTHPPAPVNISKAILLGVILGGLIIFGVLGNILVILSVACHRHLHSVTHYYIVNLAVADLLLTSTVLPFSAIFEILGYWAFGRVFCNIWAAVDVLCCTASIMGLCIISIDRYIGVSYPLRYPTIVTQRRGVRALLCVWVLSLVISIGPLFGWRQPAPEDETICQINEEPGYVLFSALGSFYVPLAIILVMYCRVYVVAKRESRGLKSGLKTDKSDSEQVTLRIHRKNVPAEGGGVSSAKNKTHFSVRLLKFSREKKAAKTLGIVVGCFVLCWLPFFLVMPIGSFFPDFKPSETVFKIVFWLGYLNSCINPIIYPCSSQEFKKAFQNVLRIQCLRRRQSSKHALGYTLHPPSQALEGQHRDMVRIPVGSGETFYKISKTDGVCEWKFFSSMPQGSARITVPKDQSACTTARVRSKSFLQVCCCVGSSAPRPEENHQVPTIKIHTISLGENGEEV
The test is described as follows: Binding affinity towards Alpha-1 adrenergic receptor in rat cerebral cortex using [3H]prazosin.

Test [5] has as its target T1, 5-hydroxytryptamine receptor 1A. The test is described as follows: Binding affinity towards 5-hydroxytryptamine 1A receptor in rat cerebral cortex.

Structures are written as SMILES.

As a reminder, the Ki is the dissociation constant of the complex between target and ligand, obtained from inhibition or displacement. High values mean weaker binding, low ones tighter binding.

Turning to `CCOc1ccccc1OCCN1CCN(c2cnn(CCCCCCCN3CCN(c4ccccc4OC)CC3)c(=O)c2Cl)CC1`, the figures for the Ki in test [1], in test [3] and in test [4] were 0.16 nM, 1.6 nM and 0.55 nM, respectively. Also, the Selectivity ratio in test [2] was found to be 3.

With `CCOc1ccccc1OCCN1CCN(c2cnn(CCCCCCCN3CCN(c4ccccc4OC(C)C)CC3)c(=O)c2Cl)CC1`, the Ki in test [5] worked out at 0.82 nM; in test [3], 3.2 nM; in test [4] it was 0.26 nM. Further, in test [2], the Selectivity ratio is 12.

For `CCOc1ccccc1OCCN1CCN(c2cnn(CCCCCCCN3CCN(c4ccccc4OCC)CC3)c(=O)c2Cl)CC1`, the values for the Ki in test [1], in test [3] and in test [4] were 0.22 nM, 2 nM and 0.43 nM, respectively. Further, in test [2], the Selectivity ratio stood at 5.

For `CCOc1ccccc1N1CCN(CCCCCCCn2ncc(N3CCN(C(=O)c4ccco4)CC3)c(Cl)c2=O)CC1`, in test [2], the Selectivity ratio is 8. Moreover, the Ki in test [3] was determined as 4 nM; in test [4], 0.5 nM.

For the compound `COc1ccccc1OCCN1CCN(c2cnn(CCCCCCCN3CCN(c4ccccc4OC)CC3)c(=O)c2Cl)CC1`, in test [2], the Selectivity ratio was 3.

Take `CCOc1ccccc1N1CCN(CCCCCCCn2ncc(N3CCN(CCOc4ccccc4OC)CC3)c(Cl)c2=O)CC1`: in test [2], the Selectivity ratio stood at 14. The Ki is reported as 8.2 nM in test [3] and 0.58 nM in test [4].

For the compound `CC(C)Oc1ccccc1N1CCN(CCCCCCCn2ncc(N3CCN(C(=O)c4ccco4)CC3)c(Cl)c2=O)CC1`, the Ki in test [1] is 0.8 nM; in test [3] it was 0.56 nM; in test [4], 0.052 nM. Further, in test [2], the Selectivity ratio worked out at 11.

Consider `COc1ccccc1N1CCN(CCCCCCCn2ncc(N3CCN(C(=O)c4ccco4)CC3)c(Cl)c2=O)CC1`, for which, in test [2], the Selectivity ratio turned out to be 274.
